{"source": "patent US8895753B2", "about": "“S1P receptor modulating agent” (Meiji Seika Pharma Co., Ltd., priority 2011, dated 2014)", "key": {"enterobacterium": {"system": "enterobacterium", "test": "Stability against enterobacterium (feces / cecum homogenates)", "type": "in vitro ADME", "details": "cynomolgus monkey feces and rat cecum homogenates, 3 and 30 μM, 37° C., 24 hours; all conditions", "procedure": "A culture medium was added to fresh feces of a cynomolgus monkey and rat cecum to prepare homogenates. To a homogenate was added the compound of the Example 2, or 1-{4-[5-(4-isopropoxyphenyl)-1,2,4-oxadiazol-3-yl]benzyl}azetidine-3-carboxylic acid (the compound of the Example 29 of Non-Patent Document 5) adjusted at a concentration of 3 and 30 μM, and the mixture was anaerobically cultured at 37° C. for 24 hours. After the cultivation, the concentration of the residual compound in the culture medium was measured on LC-MS."}, "Human S1P3 receptor": {"molecular_target": "Human S1P3 receptor (Homo sapiens, UniProt Q99500)", "sequence (Q99500 whole entry)": "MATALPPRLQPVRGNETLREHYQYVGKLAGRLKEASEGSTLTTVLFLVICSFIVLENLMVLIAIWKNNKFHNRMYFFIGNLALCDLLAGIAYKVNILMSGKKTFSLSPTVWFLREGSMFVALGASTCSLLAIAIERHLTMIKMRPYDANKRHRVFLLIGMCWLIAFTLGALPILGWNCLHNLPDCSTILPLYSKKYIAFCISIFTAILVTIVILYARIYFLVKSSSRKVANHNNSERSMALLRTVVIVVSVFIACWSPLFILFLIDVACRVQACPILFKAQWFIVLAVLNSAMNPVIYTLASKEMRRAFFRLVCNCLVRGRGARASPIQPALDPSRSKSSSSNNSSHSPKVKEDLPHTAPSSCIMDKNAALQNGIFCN", "test": "Agonist activity at a S1P3 receptor (reporter assay, EDG3-Galpha15-NFAT-bla HEK293T cells)", "type": "cell-based", "procedure": "Human S1P3 receptor gene recombinant EDG3-Galpha15-NFAT-bla HEK293T cells (Life Technologies Japan Ltd.) were plated into a 384-well clear bottom black plate treated with poly-D-lysine at a density of 1000 cells/32 μL/well, and the plate was cultured at 37° C. in a 5% CO2 incubator for 16-24 hours. A culture medium containing each test compound prepared as a 5× concentrate was added at 8 μL/well, and the plate was incubated at 37° C. in a 5% CO2 incubator for 5 hours. The substrate (LiveBLAzer™-FRET B/G substrate (CCF4-AM), Life Technologies Japan Ltd.) was prepared as a 6× concentrate was added at 8 μL to each well, and the plate was incubated at room temperature for 2 hours in the dark. The fluorescence intensity of the test samples was measured using a bottom-reading fluorescence microplate reader at one excitation wavelength and 2 wavelengths for fluorescence emission (Ex409 nm, Em460 nm, Em530 nm). The intensity ratio of fluorescence at 460 nm/530 nm was calculated for the compound at each well. The maximum response ratio confirmed from the dose response of S1P was expressed as 100%. The concentration of test compounds required to stimulate 50% of its maximal activation was computed as EC50 (nM)."}, "blood lymphocytic cells": {"system": "blood lymphocytic cells", "test": "Suppressive effect on circulating lymphocytic cells in a rat", "type": "in vivo", "details": "6 hours after administration", "procedure": "Under anesthesia, a femoral artery was cannulated in a 7-11-week old male SD rat (Charles River Laboratories Japan Inc.) that had been reared for more than one week. A vehicle (in case of intravascular administration, 10% PEG300-0.01 M KOH saline was used, and in case of oral administration, 0.5% hydroxymethyl cellulose solution was used) or a test compound was administered intravascularly or by gavage administration. Right before the administration or 2, 4, 6 hours after the administration, the number of blood lymphocytic cells was counted by using an automated hematology analyzer XT-1800i or XT-2000i (Sysmex). The count of lymphocytic cells right before the administration was regarded as 100%, and the dose of the test compound that reduced blood lymphocytic cells by 50% of vehicle-treated group at the point of 6 hours after the administration was calculated as ED50 (mg/kg body weight)."}, "electrocardiogram": {"system": "electrocardiogram", "test": "Evaluation of electrocardiogram in a rat (under anesthesia)", "type": "in vivo", "details": "anesthetized rat, intravenous 0.1 mg/kg body weight", "procedure": "Under anesthesia, femoral artery was cannulated in a 7-11-week-old male SD rat (Charles River Laboratories Japan Inc.) that had been reared for more than one week, connected to a polygraph (NIHON KODEN) via a pressure transducer. Without consciousness, a vehicle (dimethylsulfoxide) or a test compound was intravenously administered. After the administration, blood pressure, the heart rate, and electrocardiogram were monitored for about 10 minutes."}, "[1]": {"system": "electrocardiogram / monophasic action potential (MAP)", "test": "Evaluation of cardiovascular system in a guinea pig", "type": "in vivo", "details": "anesthetized guinea pig, 0.1 mg/kg body weight, infusion", "source_text": "Under anesthesia with 0.5 to 1% of halothane, to a male Hartley guinea-pig (Japan SLC, Inc.) that had been reared for more than one week, a catheter for administration of a drug solution was placed into the left jugular vein, a monophasic action potential (MAP) measurement/pacing catheter was placed into the endothelial lining of the right ventricle, a catheter for measuring blood pressure was placed into the left carotid artery, and the measurement of body surface electrocardiogram (lead II) was conducted. The drug solution was infused for 10 minutes and the measurement was carried out over 60 minutes. Also, 5, 10, 15, 20, 30, 45 and 60 minutes after the administration of the drug solution, pacing was performed (200, 240, 300 bpm), and monophasic action potential (MAP) was measured."}, "Human S1P4 receptor": {"molecular_target": "T1, Human S1P4 receptor (Homo sapiens, UniProt O95977)", "T1 sequence (O95977 1-384)": "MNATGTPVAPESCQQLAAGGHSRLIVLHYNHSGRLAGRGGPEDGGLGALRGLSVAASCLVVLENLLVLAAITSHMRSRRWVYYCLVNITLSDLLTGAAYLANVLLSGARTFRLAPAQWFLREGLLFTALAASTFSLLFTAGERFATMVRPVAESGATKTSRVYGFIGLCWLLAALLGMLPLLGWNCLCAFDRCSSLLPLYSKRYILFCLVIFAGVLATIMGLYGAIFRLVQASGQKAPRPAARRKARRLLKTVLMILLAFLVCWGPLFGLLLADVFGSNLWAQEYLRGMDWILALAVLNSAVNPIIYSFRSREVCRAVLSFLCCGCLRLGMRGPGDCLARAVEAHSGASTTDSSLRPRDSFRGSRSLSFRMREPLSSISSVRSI", "test": "Agonist activity at an S1P4 receptor (calcium influx)", "type": "cell-based", "details": "at 1000 nM; read-out: activity at S1P4 receptor (elevation of intracellular calcium)", "procedure": "By using Human S1P4 receptor expressing cells (Multispan Inc. CG1052-1), the elevation of intracellular calcium concentration via agonist activity by the addition of 1000 nM was measured by Fret method (fluorescence resonance energy transfer)."}, "[2]": {"system": "collagen-induced arthritis", "test": "Collagen-induced arthritis model", "type": "in vivo", "details": "DBA/1JN mouse, oral once daily for 4 weeks", "procedure": "A solution of Type II collagen derived from bovine and Freund's complete adjuvant were mixed to prepare an emulsion. This emulsion was used to elicit collagen-induced arthritis in a 7-week-old female DBA/1JN mouse. The initial sensitization was carried out by subcutaneous administration of the emulsion in the tail of the mouse at a dose of 150 μg/100 μL/body. 21 days after the initial sensitization, a freshly prepared collagen emulsion solution was administered subcutaneously in the tail of the mouse at a dose of 100 μg/100 μL/body as a secondary sensitization. The mouse prepared in this procedure was used as the collagen-induced arthritis model. A compound suspended in 0.5% hydroxymethyl cellulose solution was orally administered by force once daily for 4 weeks following the additional second sensitization. Pathological scores including joint symptoms and the like were measured, and the results compared to the vehicle-treated group, from which the efficacy of the compound was evaluated."}}}
{"smiles": "CC(C)Oc1ccc(-c2cnc(-c3ccc(CN4CC(C(=O)O)C4)cc3)s2)cc1", "note": "[Example 2, 1-(4-(5-(4-isopropoxyphenyl)thiazol-2-yl)benzyl)azetidine-3-carboxylic acid]", "values": [{"measurement": "residual compound after anaerobic culture with homogenate", "setting": "enterobacterium", "result": "remained almost completely intact"}, {"measurement": "EC50", "setting": "Human S1P3 receptor", "result": "≥ 2", "unit": "µM"}, {"measurement": "ED50, dose reducing blood lymphocytic cells by 50%", "setting": "blood lymphocytic cells; gavage administration", "result": 0.13, "unit": "mg/kg body weight"}, {"measurement": "ED50, dose reducing blood lymphocytic cells by 50%", "setting": "blood lymphocytic cells; vascular administration", "result": 0.1, "unit": "mg/kg body weight"}, {"measurement": "duration of continuous cardiac arrhythmia (AV block)", "setting": "electrocardiogram", "result": "< 10", "unit": "s"}, {"measurement": "MAP90 prolongation effect", "setting": "[1]", "result": "not observed"}, {"measurement": "prolonged QT", "setting": "[1]", "result": "not observed"}, {"measurement": "activation at 1 µM", "setting": "Human S1P4 receptor", "result": "< 20", "unit": "%"}, {"measurement": "efficacy on pathological scores (joint symptoms)", "setting": "[2]", "result": "equally effective as Fingolimod"}]}
{"smiles": "CC(C)Oc1ccc(-c2cnc(-c3ccc(CN4CC(C(=O)O)C4)cc3)s2)cc1Cl", "note": "[Example 3, 1-(4-(5-(3-chloro-4-isopropoxyphenyl)thiazol-2-yl)benzyl)azetidine-3-carboxylic acid]", "values": [{"measurement": "EC50", "setting": "Human S1P3 receptor", "result": "≥ 2", "unit": "µM"}, {"measurement": "ED50, dose reducing blood lymphocytic cells by 50%", "setting": "blood lymphocytic cells; gavage administration", "result": 0.15, "unit": "mg/kg body weight"}, {"measurement": "ED50, dose reducing blood lymphocytic cells by 50%", "setting": "blood lymphocytic cells; vascular administration", "result": 0.016, "unit": "mg/kg body weight"}, {"measurement": "activation at 1 µM", "setting": "Human S1P4 receptor", "result": "< 20", "unit": "%"}]}
